From patent publication US12539292B2, “BRM targeting compounds and associated methods of use” (Arvinas Operations, Inc., priority 2018, dated 2026)
Like-named read-outs stand apart in the source and are kept apart here.

Molecular target: T1, BRM (Homo sapiens, UniProt P51531)
T1 construct: In-Cell Western Screen of BRM Degradation in SW1573 Cells; endogenous in cells; host or cells: SW1573
Assay: In-cell Western screen of BRM degradation in SW1573 cells (Dmax and DC50)
Format: cell-based
Outline: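 Overnight compound treatment (18-20 h, final DMSO 0.1%) of SW1573 cells in DMEM with 10% FBS precedes fixation and in-cell Western staining with 800/680 nm dye-labelled secondaries. Plate images give DC50 and maximal degradation.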

[1] = BRM degradation, SW1573 cells, read-out: DC50
[2] = BRM degradation, SW1573 cells, Table 2D, read-out: *DC50
[3] = SW1573, % degraded, when tested at the top concentration of between 0.3 and 10 μM, read-out: BRM Dmax (%)
[4] = target protein degradation, read-out: BRM DC50
[5] = BRM degradation, SW1573 cells, when tested at the top concentration of between 0.3 and 10 μM, read-out: Dmax (%) (% degraded)
[6] = BRM degradation, read-out: BRM DC50

T1 sequence (P51531 whole entry): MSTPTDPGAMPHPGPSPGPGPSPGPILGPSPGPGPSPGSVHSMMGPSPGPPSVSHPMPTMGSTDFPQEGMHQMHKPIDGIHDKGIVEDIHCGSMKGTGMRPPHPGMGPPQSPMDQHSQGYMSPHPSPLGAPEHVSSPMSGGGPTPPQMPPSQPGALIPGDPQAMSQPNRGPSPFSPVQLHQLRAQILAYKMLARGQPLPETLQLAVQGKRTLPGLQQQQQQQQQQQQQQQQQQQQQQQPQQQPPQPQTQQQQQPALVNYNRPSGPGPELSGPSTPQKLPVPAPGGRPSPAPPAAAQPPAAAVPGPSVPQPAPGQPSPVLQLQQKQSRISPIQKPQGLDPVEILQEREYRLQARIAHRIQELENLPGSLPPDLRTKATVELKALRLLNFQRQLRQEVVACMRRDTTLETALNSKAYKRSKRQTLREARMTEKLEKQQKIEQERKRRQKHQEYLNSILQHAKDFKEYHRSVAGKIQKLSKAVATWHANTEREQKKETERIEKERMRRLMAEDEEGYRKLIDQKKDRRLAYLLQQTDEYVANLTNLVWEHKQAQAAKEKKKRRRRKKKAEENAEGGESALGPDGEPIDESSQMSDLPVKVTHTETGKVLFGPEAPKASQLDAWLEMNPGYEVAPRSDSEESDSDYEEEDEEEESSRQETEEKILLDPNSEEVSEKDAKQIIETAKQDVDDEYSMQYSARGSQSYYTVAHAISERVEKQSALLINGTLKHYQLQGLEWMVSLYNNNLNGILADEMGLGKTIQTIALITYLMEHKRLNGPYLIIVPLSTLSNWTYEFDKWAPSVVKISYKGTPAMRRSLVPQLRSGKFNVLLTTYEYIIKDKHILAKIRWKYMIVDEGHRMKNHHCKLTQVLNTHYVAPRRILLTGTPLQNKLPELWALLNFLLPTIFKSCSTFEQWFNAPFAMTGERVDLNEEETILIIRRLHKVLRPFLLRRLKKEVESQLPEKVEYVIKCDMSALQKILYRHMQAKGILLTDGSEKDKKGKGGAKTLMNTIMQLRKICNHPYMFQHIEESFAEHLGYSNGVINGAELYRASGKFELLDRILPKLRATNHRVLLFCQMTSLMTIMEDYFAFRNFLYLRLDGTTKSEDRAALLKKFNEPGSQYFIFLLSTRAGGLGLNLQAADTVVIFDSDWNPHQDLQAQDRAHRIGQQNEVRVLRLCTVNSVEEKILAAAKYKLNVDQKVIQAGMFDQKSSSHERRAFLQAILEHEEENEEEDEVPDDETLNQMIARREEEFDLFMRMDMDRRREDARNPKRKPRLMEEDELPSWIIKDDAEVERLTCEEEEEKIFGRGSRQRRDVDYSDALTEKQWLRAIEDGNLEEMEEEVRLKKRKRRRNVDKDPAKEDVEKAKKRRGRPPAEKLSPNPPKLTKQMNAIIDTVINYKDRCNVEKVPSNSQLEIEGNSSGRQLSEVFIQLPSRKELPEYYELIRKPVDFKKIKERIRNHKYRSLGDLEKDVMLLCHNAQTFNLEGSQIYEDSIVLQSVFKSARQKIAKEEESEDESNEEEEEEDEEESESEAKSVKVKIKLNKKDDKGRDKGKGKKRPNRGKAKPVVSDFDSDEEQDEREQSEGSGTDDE

Question: What does the source list for `CC(C)[C@H](C(=O)N1C[C@H](O)C[C@H]1C(=O)N[C@@H](C)c1ccc(C#N)cc1)c1cc(OCCN2CCC(O[C@H]3C[C@H](Oc4cc(N5C6CCC5CN(c5cc(-c7ccccc7O)nnc5N)C6)ccn4)C3)CC2)no1` [compound 204, (2S,4R)-1-((2S)-2-(3-(2-(4-((1r,3S)-3-((4-(3-(3-amino-6-(2-hydroxyphenyl)pyridazin-4-yl)-3,8-diazabicyclo[3.2.1]octan-8-yl)pyridin-2-yl)oxy)cyclobutoxy)piperidin-1-yl)ethoxy)isoxazol-5-yl)-3-methylbutanoyl)-N-((S)-1-(4-cyanophenyl)ethyl)-4-hydroxypyrrolidine-2-carboxamide]?
Answer: DC50 [1]: > 0.03 µM; Dmax (BRM degradation, SW1573 cells, tested at the top concentration of between 0.3 and 10 μM, read-out: Dmax (%) (% degraded)): > 75%

Question: For `COc1nc(-c2scnc2C)c(F)cc1[C@@H](C)NC(=O)[C@@H]1C[C@@H](O)CN1C(=O)[C@H](c1cc(OCCN2CCC(O[C@H]3C[C@H](Oc4cc(N5C6CCC5CN(c5cc(-c7ccccc7O)nnc5N)C6)ccn4)C3)CC2)no1)C(C)C` [compound 563, (2S,4R)-1-((2S)-2-(3-(2-(4-((1r,3S)-3-((4-(3-(3-amino-6-(2-hydroxyphenyl)pyridazin-4-yl)-3,8-diazabicyclo[3.2.1]octan-8-yl)pyridin-2-yl)oxy)cyclobutoxy)piperidin-1-yl)ethoxy)isoxazol-5-yl)-3-methylbutanoyl)-N-((R)-1-(5-fluoro-2-methoxy-6-(4-methylthiazol-5-yl)pyridin-3-yl)ethyl)-4-hydroxypyrrolidine-2-carboxamide], which DC50 [2] is on record?
Answer: The DC50 was greater than 0.03 µM.

Question: Which Dmax [3] does the source give for `Cc1ncsc1-c1ccc([C@H](C)NC(=O)[C@@H]2C[C@@H](O)CN2C(=O)[C@@H](c2cc(N3CCN(CC4CCN(C[C@H]5C[C@H](Oc6cc(N7C8CCC7CN(c7cc(-c9ccccc9O)nnc7N)C8)ccn6)C5)CC4)CC3)no2)C(C)C)cc1` [compound 458, (2S,4R)-1-((2R)-2-(3-(4-((1-(((1r,3r)-3-((4-(3-(3-amino-6-(2-hydroxyphenyl)pyridazin-4-yl)-3,8-diazabicyclo[3.2.1]octan-8-yl)pyridin-2-yl)oxy)cyclobutyl)methyl)piperidin-4-yl)methyl)piperazin-1-yl)isoxazol-5-yl)-3-methylbutanoyl)-4-hydroxy-N-((S)-1-(4-(4-methylthiazol-5-yl)phenyl)ethyl)pyrrolidine-2-carboxamide] here?
Answer: Its Dmax is greater than 75%.

Question: What about the DC50 [4] of the same molecule?
Answer: The DC50 was less than 0.0025 µM.

Question: With `Cc1ncsc1-c1ccc([C@H](C)NC(=O)[C@@H]2C[C@@H](O)CN2C(=O)[C@@H](c2cc(N3CCC(C#CCN4CCC(Oc5cc(N6C7CCC6CN(c6cc(-c8ccccc8O)nnc6N)C7)ccn5)CC4)CC3)no2)C(C)C)cc1` [compound 677, (2S,4R)-1-((2R)-2-(3-(4-(3-(4-((4-(3-(3-amino-6-(2-hydroxyphenyl)pyridazin-4-yl)-3,8-diazabicyclo[3.2.1]octan-8-yl)pyridin-2-yl)oxy)piperidin-1-yl)prop-1-yn-1-yl)piperidin-1-yl)isoxazol-5-yl)-3-methylbutanoyl)-4-hydroxy-N-((S)-1-(4-(4-methylthiazol-5-yl)phenyl)ethyl)pyrrolidine-2-carboxamide] as the molecule, how does the DC50 [1] read?
Answer: Its DC50 is less than 0.0025 µM.

Question: And the Dmax (BRM degradation, SW1573 cells, read-out: Dmax (% degraded))?
Answer: The Dmax was greater than 75%.

Question: How did the DC50 [1] turn out when `Cc1ncsc1-c1ccc([C@H](C)NC(=O)[C@@H]2C[C@@H](O)CN2C(=O)[C@@H](c2cc(OCCN3CCN(CCOc4cc(N5C6CCC5CN(c5cc(-c7ccccc7O)nnc5N)C6)ccn4)C[C@H]3C)no2)C(C)C)cc1` [compound 142, (2S,4R)-1-((2R)-2-(3-(2-((2R)-4-(2-((4-(3-(3-amino-6-(2-hydroxyphenyl)pyridazin-4-yl)-3,8-diazabicyclo[3.2.1]octan-8-yl)pyridin-2-yl)oxy)ethyl)-2-methylpiperazin-1-yl)ethoxy)isoxazol-5-yl)-3-methylbutanoyl)-4-hydroxy-N-((S)-1-(4-(4-methylthiazol-5-yl)phenyl)ethyl)pyrrolidine-2-carboxamide] was run?
Answer: Its DC50 is less than 0.0025 µM.

Question: What about the Dmax [5] of the same molecule?
Answer: The Dmax was greater than 75%.

Question: How did the DC50 [4] turn out when `Cc1ncsc1-c1ccc([C@H](C)NC(=O)[C@@H]2C[C@@H](O)CN2C(=O)[C@@H](c2cc(OCCN3CCC(O[C@H]4C[C@H](Oc5cc(N6C7CCC6CN(c6ccn8cc(-c9ccccc9O)nc8n6)C7)ccn5)C4)CC3)no2)C(C)C)cc1` [compound 489, (2S,4R)-4-hydroxy-1-((2R)-2-(3-(2-(4-((1r,3R)-3-((4-(3-(2-(2-hydroxyphenyl)imidazo[1,2-a]pyrimidin-7-yl)-3,8-diazabicyclo[3.2.1]octan-8-yl)pyridin-2-yl)oxy)cyclobutoxy)piperidin-1-yl)ethoxy)isoxazol-5-yl)-3-methylbutanoyl)-N-((S)-1-(4-(4-methylthiazol-5-yl)phenyl)ethyl)pyrrolidine-2-carboxamide] was run?
Answer: The DC50 was greater than 0.03 µM.

Question: What does the source list for `Cc1ncsc1-c1ccc([C@H](C)NC(=O)[C@@H]2C[C@@H](O)CN2C(=O)[C@@H](c2cc(OCCCCN3CCN(CCCCOc4cc(N5C6CCC5CN(c5cc(-c7ccccc7O)nnc5N)C6)ccn4)CC3)no2)C(C)C)cc1` [compound 390, (2S,4R)-1-((2R)-2-(3-(4-(4-(4-((4-(3-(3-amino-6-(2-hydroxyphenyl)pyridazin-4-yl)-3,8-diazabicyclo[3.2.1]octan-8-yl)pyridin-2-yl)oxy)butyl)piperazin-1-yl)butoxy)isoxazol-5-yl)-3-methylbutanoyl)-4-hydroxy-N-((S)-1-(4-(4-methylthiazol-5-yl)phenyl)ethyl)pyrrolidine-2-carboxamide]?
Answer: Dmax [3]: > 75%; DC50 [4]: < 0.0025 µM

Question: With `Cc1ncsc1-c1ccc([C@H](C)NC(=O)[C@@H]2C[C@@H](O)CN2C(=O)[C@@H](c2cc(N3CCC(CN4CCC([C@H](C)n5cc(-c6cc(-c7ccccc7O)nnc6N)cn5)CC4)CC3)no2)C(C)C)cc1` (single isomer, unassigned) [compound 573] as the molecule, how does the Dmax (BRM degradation, SW1573 cells, Table 2D, read-out: **Dmax (%) (% degraded)) read?
Answer: The Dmax was greater than 75%.

Question: What about the DC50 [2] of the same molecule?
Answer: Its DC50 is less than 0.0025 µM.

Question: What does the source list for `Cc1ncsc1-c1ccc([C@H](C)NC(=O)[C@@H]2C[C@@H](O)CN2C(=O)[C@@H](c2cc(OCCC3CCN(C(=O)[C@H]4C[C@@H](CN5CCC([C@@H](C)n6cc(-c7cc(-c8ccccc8O)nnc7N)cn6)CC5)C4)CC3)no2)C(C)C)cc1` [compound 452, (2S,4R)-1-((R)-2-(3-(2-(1-((1S,3S)-3-((4-((R)-1-(4-(3-amino-6-(2-hydroxyphenyl)pyridazin-4-yl)-1H-pyrazol-1-yl)ethyl)piperidin-1-yl)methyl)cyclobutane-1-carbonyl)piperidin-4-yl)ethoxy)isoxazol-5-yl)-3-methylbutanoyl)-4-hydroxy-N-((S)-1-(4-(4-methylthiazol-5-yl)phenyl)ethyl)pyrrolidine-2-carboxamide]?
Answer: Dmax [3]: > 75%; DC50 [4]: 0.01 to 0.03 µM

Question: Which DC50 [6] does the source give for `Cc1ncsc1-c1ccc([C@H](C)NC(=O)[C@@H]2C[C@@H](O)CN2C(=O)[C@H](c2cc(N3CCN(CC#Cc4ncc(O[C@H]5C[C@H](Oc6cc(N7C8CCC7CN(c7cc(-c9ccccc9O)nnc7N)C8)ccn6)C5)cn4)CC3)no2)C(C)C)cc1` [compound 521, (2S,4R)-1-((2S)-2-(3-(4-(3-(5-((1r,3r)-3-((4-(3-(3-amino-6-(2-hydroxyphenyl)pyridazin-4-yl)-3,8-diazabicyclo[3.2.1]octan-8-yl)pyridin-2-yl)oxy)cyclobutoxy)pyrimidin-2-yl)prop-2-yn-1-yl)piperazin-1-yl)isoxazol-5-yl)-3-methylbutanoyl)-4-hydroxy-N-((S)-1-(4-(4-methylthiazol-5-yl)phenyl)ethyl)pyrrolidine-2-carboxamide] here?
Answer: The DC50 was greater than 0.03 µM.

Question: Which results are given for `Cc1ncsc1-c1ccc(CNC(=O)[C@@H]2C[C@@H](O)CN2C(=O)[C@@H](NC(=O)COCCOCCOCCOCCOc2cc(N3C4CCC3CN(c3cc(-c5ccccc5O)nnc3N)C4)ccn2)C(C)(C)C)cc1` [compound 7, (2S,4R)-1-((2S)-17-((4-(3-(3-amino-6-(2-hydroxyphenyl)pyridazin-4-yl)-3,8-diazabicyclo[3.2.1]octan-8-yl)pyridin-2-yl)oxy)-2-(tert-butyl)-4-oxo-6,9,12,15-tetraoxa-3-azaheptadecanoyl)-4-hydroxy-N-(4-(4-methylthiazol-5-yl)benzyl)pyrrolidine-2-carboxamide]?
Answer: DC50 [1]: 0.0025 to 0.01 µM; Dmax [5]: > 75%

Question: Which DC50 [6] does the source give for `Cc1cc([C@H](C(=O)N2C[C@H](O)C[C@H]2C(=O)N[C@@H](COCCOCCNc2ccc(-c3ccccc3O)nn2)c2ccc(-c3scnc3C)cc2)C(C)C)on1` [compound 526, (2S,4R)-4-hydroxy-N-((R)-2-(2-(2-((6-(2-hydroxyphenyl)pyridazin-3-yl)amino)ethoxy)ethoxy)-1-(4-(4-methylthiazol-5-yl)phenyl)ethyl)-1-((R)-3-methyl-2-(3-methylisoxazol-5-yl)butanoyl)pyrrolidine-2-carboxamide] here?
Answer: The DC50 was greater than 0.03 µM.

Question: Which results are given for `Cc1ncsc1-c1ccc([C@H](C)NC(=O)[C@@H]2C[C@@H](O)CN2C(=O)C(c2cc(OCCN3[C@H](C)C[C@H](O[C@H]4C[C@H](Oc5cc(N6C7CCC6CN(c6cc(-c8ccccc8O)nnc6N)C7)ccn5)C4)C[C@@H]3C)no2)C(C)C)cn1` (stereo partly drawn) [compound 448, (2S,4R)-1-(2-(3-(2-((2S,4S,6R)-4-((1r,3R)-3-((4-(3-(3-amino-6-(2-hydroxyphenyl)pyridazin-4-yl)-3,8-diazabicyclo[3.2.1]octan-8-yl)pyridin-2-yl)oxy)cyclobutoxy)-2,6-dimethylpiperidin-1-yl)ethoxy)isoxazol-5-yl)-3-methylbutanoyl)-4-hydroxy-N-((S)-1-(6-(4-methylthiazol-5-yl)pyridin-3-yl)ethyl)pyrrolidine-2-carboxamide]?
Answer: Dmax [3]: > 75%; DC50 [4]: < 0.0025 µM
